Reference: publication doi:10.1101/2020.06.06.138008v1 (biorxiv, 2020)

Target: MlaFEDB (Escherichia coli, UniProt P63386)
Details: pH 8.0, 5 mM MgCl2, 150 mM NaCl, 0.5 mM DDM micelles; Hill n = 1.81 ± 0.35

MlaFEDB, sequence (P63386 whole entry): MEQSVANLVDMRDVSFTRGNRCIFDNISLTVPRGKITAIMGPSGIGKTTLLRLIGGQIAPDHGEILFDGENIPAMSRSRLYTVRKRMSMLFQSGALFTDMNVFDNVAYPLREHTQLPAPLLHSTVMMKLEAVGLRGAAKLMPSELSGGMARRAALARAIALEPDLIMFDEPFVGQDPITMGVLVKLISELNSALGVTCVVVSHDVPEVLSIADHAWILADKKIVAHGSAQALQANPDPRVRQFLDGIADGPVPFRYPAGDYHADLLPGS
MlaFEDB, sequence (P64606 whole entry partner): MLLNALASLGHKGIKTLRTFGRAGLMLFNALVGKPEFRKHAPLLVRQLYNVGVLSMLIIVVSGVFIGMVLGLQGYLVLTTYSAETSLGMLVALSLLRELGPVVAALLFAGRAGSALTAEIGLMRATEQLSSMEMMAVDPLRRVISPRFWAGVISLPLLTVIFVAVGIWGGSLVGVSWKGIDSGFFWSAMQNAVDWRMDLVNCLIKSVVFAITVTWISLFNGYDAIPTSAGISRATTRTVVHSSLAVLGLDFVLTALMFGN
MlaFEDB, sequence (P64604 whole entry partner): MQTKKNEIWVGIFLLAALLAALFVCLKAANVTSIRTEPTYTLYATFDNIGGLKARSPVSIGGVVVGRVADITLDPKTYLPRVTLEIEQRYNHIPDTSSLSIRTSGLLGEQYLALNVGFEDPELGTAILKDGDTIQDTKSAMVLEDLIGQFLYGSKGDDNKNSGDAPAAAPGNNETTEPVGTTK
MlaFEDB, sequence (P64602 whole entry partner): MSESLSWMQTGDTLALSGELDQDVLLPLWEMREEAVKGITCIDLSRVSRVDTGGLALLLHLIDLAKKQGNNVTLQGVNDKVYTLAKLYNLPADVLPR

Km: 200 ± 44.6 µM
Structure (SMILES): Nc1ncnc2c1ncn2[C@@H]1O[C@H](COP(=O)(O)OP(=O)(O)OP(=O)(O)O)[C@@H](O)[C@H]1O [ATP]
